In PubChem BioAssay (NCI):
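In this assay, cells in 96-well plates receive the compound at five concentrations for 48 hours. Endpoints are linearly interpolated between the surrounding concentrations. The concentration for full growth arrest is given as TGI.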

Experiments:
Experiment in all cases: growth of human tumour cells (NCI), 48 h
K-562 leukemia = test system: K-562 leukemia
UACC-257 melanoma = test system: UACC-257 melanoma
TK-10 renal = test system: TK-10 renal
UO-31 renal = test system: UO-31 renal
HCT-15 colon = test system: HCT-15 colon
786-0 renal = test system: 786-0 renal
NCI-H522 lung = test system: NCI-H522 lung
NCI-H226 lung = test system: NCI-H226 lung
CAKI-1 renal = test system: CAKI-1 renal
RPMI-8226 leukemia = test system: RPMI-8226 leukemia
A498 renal = test system: A498 renal
LOX IMVI melanoma = test system: LOX IMVI melanoma
OVCAR-4 ovarian = test system: OVCAR-4 ovarian
SR leukemia = test system: SR leukemia
SF-268 CNS = test system: SF-268 CNS
RXF 393 renal = test system: RXF 393 renal
HS 578T breast = test system: HS 578T breast
SF-295 CNS = test system: SF-295 CNS
HCT-116 colon = test system: HCT-116 colon
SW-620 colon = test system: SW-620 colon
ACHN renal = test system: ACHN renal
MALME-3M melanoma = test system: MALME-3M melanoma
OVCAR-8 ovarian = test system: OVCAR-8 ovarian
EKVX NSCLC = test system: EKVX NSCLC
SN12C renal = test system: SN12C renal
IGROV1 ovarian = test system: IGROV1 ovarian
SNB-19 CNS = test system: SNB-19 CNS
NCI-H460 lung = test system: NCI-H460 lung
MOLT-4 leukemia = test system: MOLT-4 leukemia
HOP-62 NSCLC = test system: HOP-62 NSCLC
SK-OV-3 ovarian = test system: SK-OV-3 ovarian
HL-60(TB) leukemia = test system: HL-60(TB) leukemia
U251 CNS = test system: U251 CNS
SK-MEL-2 melanoma = test system: SK-MEL-2 melanoma
PC-3 prostate = test system: PC-3 prostate
MDA-N = test system: MDA-N
NCI/ADR-RES ovarian = test system: NCI/ADR-RES ovarian
SF-539 CNS = test system: SF-539 CNS
SK-MEL-28 melanoma = test system: SK-MEL-28 melanoma
DU-145 prostate = test system: DU-145 prostate
SK-MEL-5 melanoma = test system: SK-MEL-5 melanoma
MCF7 breast = test system: MCF7 breast
HT29 colon = test system: HT29 colon
HOP-92 NSCLC = test system: HOP-92 NSCLC
NCI-H23 lung = test system: NCI-H23 lung
KM12 colon = test system: KM12 colon
HCC-2998 colon = test system: HCC-2998 colon
M14 melanoma = test system: M14 melanoma
OVCAR-5 ovarian = test system: OVCAR-5 ovarian
BT-549 breast = test system: BT-549 breast
COLO 205 colon = test system: COLO 205 colon
A549 NSCLC = test system: A549 NSCLC
MDA-MB-435 = test system: MDA-MB-435
SNB-75 CNS = test system: SNB-75 CNS
T-47D breast = test system: T-47D breast
UACC-62 melanoma = test system: UACC-62 melanoma
CCRF-CEM leukemia = test system: CCRF-CEM leukemia
MDA-MB-231 breast = test system: MDA-MB-231 breast
OVCAR-3 ovarian = test system: OVCAR-3 ovarian

CC(=O)N=C1C=C(NC(C)=O)C(=O)c2ccccc21
TGI (K-562 leukemia): 7.01 µM
TGI (UACC-257 melanoma): 3.33 µM
TGI (TK-10 renal): 12.3 µM
TGI (UO-31 renal): 4.26 µM
TGI (HCT-15 colon): 9.13 µM
TGI (786-0 renal): 3.37 µM
TGI (NCI-H522 lung): 3.06 µM
TGI (NCI-H226 lung): 14.9 µM
TGI (CAKI-1 renal): 3.43 µM
TGI (RPMI-8226 leukemia): 4.13 µM
TGI (A498 renal): 28.6 µM
TGI (LOX IMVI melanoma): 3.19 µM
TGI (OVCAR-4 ovarian): 3.09 µM
TGI (SR leukemia): 4.06 µM
TGI (SF-268 CNS): 10.2 µM
TGI (RXF 393 renal): 5.46 µM
TGI (HS 578T breast): 56.5 µM
TGI (SF-295 CNS): 8.88 µM
TGI (HCT-116 colon): 3.62 µM
TGI (SW-620 colon): 3.86 µM
TGI (ACHN renal): 3.12 µM
TGI (MALME-3M melanoma): 3.62 µM
TGI (OVCAR-8 ovarian): 6.04 µM
TGI (EKVX NSCLC): 12.5 µM
TGI (SN12C renal): 3.47 µM
TGI (IGROV1 ovarian): 3.59 µM
TGI (SNB-19 CNS): 7.9 µM
TGI (NCI-H460 lung): 28.1 µM
TGI (MOLT-4 leukemia): 5.17 µM
TGI (HOP-62 NSCLC): 40.4 µM
TGI (SK-OV-3 ovarian): 19.9 µM
TGI (HL-60(TB) leukemia): 6.84 µM
TGI (U251 CNS): 10.7 µM
TGI (SK-MEL-2 melanoma): 10.7 µM
TGI (PC-3 prostate): 7.49 µM
TGI (MDA-N): 3.38 µM
TGI (NCI/ADR-RES ovarian): 7.59 µM
TGI (SF-539 CNS): 6.39 µM
TGI (SK-MEL-28 melanoma): 8.04 µM
TGI (DU-145 prostate): 3.18 µM
TGI (SK-MEL-5 melanoma): 3.19 µM
TGI (MCF7 breast): 3.46 µM
TGI (HT29 colon): 6.27 µM
TGI (HOP-92 NSCLC): 3.15 µM
TGI (NCI-H23 lung): 2.3 µM
TGI (KM12 colon): 17.5 µM
TGI (HCC-2998 colon): 34.3 µM
TGI (M14 melanoma): 3.33 µM
TGI (OVCAR-5 ovarian): 4.58 µM
TGI (BT-549 breast): 4.85 µM
TGI (COLO 205 colon): 3.79 µM
TGI (A549 NSCLC): 19.1 µM
TGI (MDA-MB-435): 3.48 µM
TGI (SNB-75 CNS): 8.66 µM
TGI (T-47D breast): 4.05 µM
TGI (UACC-62 melanoma): 6.18 µM
TGI (CCRF-CEM leukemia): 7.62 µM

CCc1n[nH]c(=O)n1NC(=O)CCCC(=O)O
TGI (MDA-MB-231 breast): > 100 µM
TGI (K-562 leukemia): > 100 µM
TGI (UACC-257 melanoma): > 100 µM
TGI (TK-10 renal): > 100 µM
TGI (UO-31 renal): > 100 µM
TGI (HCT-15 colon): > 100 µM
TGI (786-0 renal): > 100 µM
TGI (NCI-H522 lung): > 100 µM
TGI (NCI-H226 lung): > 100 µM
TGI (CAKI-1 renal): > 100 µM
TGI (RPMI-8226 leukemia): > 100 µM
TGI (A498 renal): > 100 µM
TGI (LOX IMVI melanoma): > 100 µM
TGI (OVCAR-4 ovarian): > 100 µM
TGI (SR leukemia): > 100 µM
TGI (SF-268 CNS): > 100 µM
TGI (RXF 393 renal): > 100 µM
TGI (HS 578T breast): > 100 µM
TGI (SF-295 CNS): > 100 µM
TGI (HCT-116 colon): > 100 µM
TGI (SW-620 colon): > 100 µM
TGI (ACHN renal): > 100 µM
TGI (MALME-3M melanoma): > 100 µM
TGI (OVCAR-8 ovarian): > 100 µM
TGI (EKVX NSCLC): > 100 µM
TGI (SN12C renal): > 100 µM
TGI (IGROV1 ovarian): > 100 µM
TGI (SNB-19 CNS): > 100 µM
TGI (NCI-H460 lung): > 100 µM
TGI (MOLT-4 leukemia): > 100 µM
TGI (HOP-62 NSCLC): > 100 µM
TGI (SK-OV-3 ovarian): > 100 µM
TGI (U251 CNS): > 100 µM
TGI (SK-MEL-2 melanoma): > 100 µM
TGI (PC-3 prostate): > 100 µM
TGI (MDA-N): > 100 µM
TGI (NCI/ADR-RES ovarian): > 100 µM
TGI (SF-539 CNS): > 100 µM
TGI (SK-MEL-5 melanoma): > 100 µM
TGI (MCF7 breast): > 100 µM
TGI (OVCAR-3 ovarian): > 100 µM
TGI (HT29 colon): > 100 µM
TGI (HOP-92 NSCLC): > 100 µM
TGI (NCI-H23 lung): > 100 µM
TGI (KM12 colon): > 100 µM
TGI (HCC-2998 colon): > 100 µM
TGI (M14 melanoma): > 100 µM
TGI (OVCAR-5 ovarian): > 100 µM
TGI (BT-549 breast): > 100 µM
TGI (COLO 205 colon): > 100 µM
TGI (A549 NSCLC): > 100 µM
TGI (MDA-MB-435): > 100 µM
TGI (T-47D breast): > 100 µM
TGI (UACC-62 melanoma): > 100 µM
TGI (CCRF-CEM leukemia): > 100 µM
